Source: article PMC12142043, “Cell-based high-content approach for SARS-CoV-2 neutralization identifies unique monoclonal antibodies and PI3K pathway inhibitors” (Frontiers in Cell and Developmental Biology, 2025)
Where a name gives a salt, the structure may show the parent alone.

Test system: SARS-CoV-2 (USA-WA1/2020) in Calu-3 cells
Format: cell-based
Conditions: Calu-3, 48 h; for dsRNA signal, AU High: high dose (10 µM); for dsRNA signal, AU Low: low dose (100 nM)

Row | SMILES | dsRNA signal, AU High | dsRNA signal, AU Low
1 | O=C(O)c1ccc2c(c1)nc(Nc1cccc(Cl)c1)c1ccncc12 [CX-4945 (Silmitasertib)] | 35326.5 AU | 21811.4 AU
2 | CN1CCCN(C(=O)c2cccc(-c3ccc(/C=C4/C(=O)Nc5ccc(Cl)cc54)o3)c2)CC1 [CX-6258] | 0.0 AU | 9957.5 AU
3 | COc1cc2nccc(Oc3ccc(NC(=O)C4(C(=O)Nc5ccc(F)cc5)CC4)cc3)c2cc1OC [Cabozantinib (XL184, BMS-907351)] | 13075.8 AU | 39205.8 AU
4 | COc1cc2nccc(Oc3ccc(NC(=O)C4(C(=O)Nc5ccc(F)cc5)CC4)cc3)c2cc1OC.O=C(O)C[C@H](O)C(=O)O [Cabozantinib malate (XL184)] | 148.7 AU | 24276.1 AU
5 | COc1cc2c(Oc3ccc4[nH]c(C)cc4c3F)ncnc2cc1OCCCN1CCCC1 [Cediranib (AZD217)] | 1359.3 AU | 15765.2 AU
6 | CCS(=O)(=O)N1CCN(c2ccc(Nc3ncc(C(N)=O)c(NC4CC4)n3)cc2)CC1 [Cerdulatinib (PRT062070)] | 60131.0 AU | 21245.1 AU
7 | COc1ccc2c(c[n+](C)c3c4cc5c(cc4ccc23)OCO5)c1OC [Chelerythrine Chloride] | 10306.1 AU | 22120.5 AU
8 | CCN(CC)CCCC(C)Nc1ccnc2cc(Cl)ccc12 (stereo not shown) [Chloroquine diphosphate] | 4180.7 AU | 1072.6 AU
9 | O=C(c1ccc(F)c(F)c1Nc1ccc(I)cc1F)N1CC(O)([C@@H]2CCCCN2)C1 [Cobimetinib] | 1412.8 AU | 21814.8 AU
10 | O=C(O)c1cc(=O)c2c(OCC(O)COc3cccc4oc(C(=O)O)cc(=O)c34)cccc2o1 [Cromolyn sodium] | 64024.7 AU | 17957.1 AU
11 | CC(C)(O)/C=C/C(=O)[C@](C)(O)[C@H]1[C@H](O)C[C@@]2(C)[C@@H]3CC=C4[C@@H](C=C(O)C(=O)C4(C)C)[C@]3(C)C(=O)C[C@]12C [Cucurbitacin I] | 39627.9 AU | 39750.1 AU
12 | C=C1C[C@@]2(O)O[C@@]3(C[C@H]2C(C)C)[C@@H](C)CC[C@@H]13 [Curcumol] | 0.0 AU | 41441.3 AU
13 | C[C@@H]1C(=O)O[C@H](C)[C@H]1C[C@@H](O)[C@](C)(O)[C@H]1CC[C@@]2(O)C3=CC(=O)[C@@H]4C[C@@H](O)[C@@H](O)C[C@]4(C)[C@H]3CC[C@]12C [Cyasterone] | 81.6 AU | 11248.2 AU
14 | NC(=O)c1ccc(-c2nc(-c3ccc4c(c3)OCCO4)c(-c3ccccn3)[nH]2)cc1 [D4476] | 6178.6 AU | 10405.5 AU
15 | Nc1cccc(S(=O)(=O)N2CCCN(S(=O)(=O)c3ccc4c(c3)OCCO4)CC2)c1 [DASA-58] | 7492.3 AU | 8577.3 AU
16 | NC(=O)c1ccccc1Nc1ccnc(Nc2cccc(O)c2)n1 [DB07268] | 10652.5 AU | 37894.5 AU
17 | O=C(O)C(Cl)Cl [DCA] | 2582.6 AU | 13605.1 AU
18 | CCn1c(=O)c(-c2cc(NC(=O)Nc3ccccc3)c(F)cc2Br)cc2cnc(NC)cc21 [DCC-2618] | 31390.7 AU | 17341.0 AU
19 | O=C(NCCN1CCCC1)c1cc(-c2ccc(CN3CCOCC3)cc2)nc2ccc(F)cc12 [DDD107498] | 38942.1 AU | 5409.3 AU
20 | CC(C)Oc1ccc(-c2cnc3c(-c4ccnc5ccccc45)cnn3c2)cc1 [DMH-1] | 13545.0 AU | 45359.2 AU
21 | CC(C)(C)c1nc(-c2cccc(NS(=O)(=O)c3c(F)cccc3F)c2F)c(-c2ccnc(N)n2)s1.CS(=O)(=O)O [Dabrafenib Mesylate (GSK-2118436)] | 27414.0 AU | 0.0 AU
22 | COc1cc2ncnc(Nc3ccc(F)c(Cl)c3)c2cc1NC(=O)/C=C/CN1CCCCC1 [Dacomitinib (PF299804, PF299)] | 0.0 AU | 7030.9 AU
23 | CNC(=O)c1ccc(Nc2ncc(C(F)(F)F)c(NCc3nccnc3N(C)S(C)(=O)=O)n2)cc1 [Defactinib] | 31683.7 AU | 56452.3 AU
24 | CCCCOc1cc(C(=O)NCCN(CC)CC)c2ccccc2n1.Cl [Dibucaine (Cinchocaine) HCl] | 9319.1 AU | 11778.5 AU

Row | SMILES | dsRNA signal, AU High | dsRNA signal, AU Low
25 | CCCC(=O)Nc1ncnc2c1ncn2[C@@H]1O[C@@H]2COP(=O)([O-])O[C@H]2[C@H]1OC(=O)CCC.[Na+] [Dibutyryl-cAMP, sodium salt] | 10702.1 AU | 55803.3 AU
26 | O=C1c2c(O)cc(O)cc2O[C@H](c2cc(O)c(O)c(O)c2)[C@H]1O [Dihydromyricetin] | 20863.8 AU | 12380.4 AU
27 | CCc1cnn2c(NCc3ccc[n+]([O-])c3)cc(N3CCCC[C@H]3CCO)nc12 [Dinaciclib (SCH727965)] | 10476.7 AU | 0.0 AU
28 | C[C@@H]1CC[C@@]2(OC1)O[C@H]1C[C@H]3[C@@H]4CC=C5C[C@@H](O)CC[C@]5(C)[C@H]4CC[C@]3(C)[C@H]1[C@@H]2C [Diosgenin] | 0.0 AU | 2764.9 AU
29 | Cl.Cl.c1cc(-c2cnn3cc(-c4ccc(OCCN5CCCCC5)cc4)cnc23)ccn1 [Dorsomorphin 2HCl] | 1809.4 AU | 18817.3 AU
30 | c1cc(-c2cnn3cc(-c4ccc(OCCN5CCCCC5)cc4)cnc23)ccn1 [Dorsomorphin (Compound C)] | 6395.6 AU | 1963.8 AU
31 | CN1CCN(c2ccc3nc(-c4c(N)c5c(F)cccc5[nH]c4=O)[nH]c3c2)CC1 [Dovitinib (TKI-258, CHIR-258)] | 15765.0 AU | 183.2 AU
32 | CC(O)C(=O)O.CC(O)C(=O)O.CN1CCN(c2ccc3nc(-c4c(N)c5c(F)cccc5[nH]c4=O)[nH]c3c2)CC1 [Dovitinib Dilactic acid] | 47107.5 AU | 17331.2 AU
33 | O=C(Nc1nccs1)C(c1cc(F)ccc1O)N1Cc2ccccc2C1=O (stereo not shown) [EAI045] | 0.0 AU | 14269.6 AU
34 | O=c1cc(CN2CCOCC2)occ1OCCCCCSc1ccnc2cc(C(F)(F)F)ccc12 [EHT 1864] | 22471.9 AU | 17099.7 AU
35 | CCn1c2ccccc2c2cc(Nc3ccnc(NCCCN4CCOCC4)n3)ccc21 [EHop-016] | 0.0 AU | 44568.8 AU
36 | CCc1c(C(=O)NNC(=O)C(O)c2cc(F)cc(F)c2)ccc(O)c1C (stereo not shown) [EMD638683] | 288.1 AU | 20264.2 AU
37 | CN1CCC(COc2cnc(-c3cccc(Cn4nc(-c5cccc(C#N)c5)ccc4=O)c3)nc2)CC1 [EMD-1214063] | 14120.6 AU | 47689.1 AU
38 | Cc1cccc(-c2[nH]c(CNc3ccccc3F)nc2-c2ccc3ncnn3c2)n1 [EW-7197] | 168.7 AU | 7205.0 AU
39 | O=c1oc2c(O)c(O)cc3c(=O)oc4c(O)c(O)cc1c4c23 [Ellagic acid] | 14274.7 AU | 14007.9 AU
40 | Cc1cc(O)c2c(c1)C(=O)c1cc(O)cc(O)c1C2=O [Emodin] | 20341.5 AU | 11688.8 AU
41 | C#Cc1cccc(Nc2ncnc3cc(OCCOC)c(OCCOC)cc23)c1 [Erlotinib Hydrochloride] | 3624.7 AU | 52457.7 AU
42 | C#Cc1cccc(Nc2ncnc3cc(OCCOC)c(OCCOC)cc23)c1 [Erlotinib] | 7272.0 AU | 15317.7 AU
43 | CCOC(=O)c1cc(O)c(O)c(O)c1 [Ethyl gallate] | 180.5 AU | 60976.1 AU
44 | Cc1ccc(-c2c(C(=O)CF)n(CCCO)c3ncnc(N)c23)cc1 [FMK] | 36246.0 AU | 14082.6 AU
45 | Nc1[nH]nc2nnc(-c3c(-c4ccccc4)nn4ccccc34)cc12 [FR 180204] | 10806.0 AU | 12597.7 AU
46 | CCn1c(=O)c(-c2ccc(-c3cncs3)cc2Cl)cc2cnc(Nc3ccc(N4CCN(C)CC4)cc3)nc21 [FRAX597] | 1538.8 AU | 50796.9 AU
47 | CCCCCCCCc1ccc(CCC(N)(CO)CO)cc1 [Fingolimod (FTY720)] | 0.0 AU | 13731.4 AU
